According to patent publication US6307080A, “Water-soluble zinc pyruvates or their hydrates, method for the product ion thereof and their use” (SKW Trostberg Aktiengesellschaft, priority 1998, dated 2001):
pIC50: −log10 of the molar value.

What was measured:
[1] = system: influenza A/Chile/1/83 or influenza B/Singapore/27/79 in MDCK cells; format: cell-based, influenza A and influenza B viruses; conditions: Table 1; for Plaque (plaque reduction assay): concentration in plaque reduction assay, MDCK cells, 30 min treatment; for Plaque Reduction: percentage reduction in number of plaque per unit volume (well), 30 min
[2] = system: influenza A/Chile/1/83 or influenza B/Singapore/27/79 (viral hemagglutination of erythrocytes); experiment: Inhibition of influenza-induced viral hemagglutination (vHAI) of erythrocytes (RBC); format: cell-based, influenza A and influenza B viruses; conditions: Table 1; for pIC50: read-out: HAI IC50
[3] = Solubility; format: physicochemical; conditions: product of Berzelius's instructions, identified as zinc parapyruvate
[4] = system: type II diabetics; conditions: cited from earlier work
[5] = system: erythrocytes (RBC)
[6] = system: macrophages; experiment: Inhibition of superoxide (HO2) release from activated macrophages (cytochrome C reduction); format: cell-based; conditions: in words
[7] = target: macrophages; experiment: Binding/association of zinc pyruvate to macrophages (equilibrium dialysis)

| Compound | Plaque (plaque reduction assay) [1] [µM] | Plaque Reduction [1] [%] | Potency HAI [2] | pIC50 [2] | further results |
| --- | --- | --- | --- | --- | --- |
| CC(=O)[O-].CC(=O)[O-].[Zn+2] [Zn(Ac)2] | 1700 | 15 | 6.0 | 3.82 |  |
| [Cl-].[Cl-].[Zn+2] [ZnCl2] | 1200 | 20 | 5.0 | 4.00 |  |
| O.[O]=[Zn] [ZnO.H2 O] | 1700 | 15 | 4.5 |  |  |
| [O]=[Zn] [ZnO.H2 O] |  |  |  | ~3.70 |  |
| CC(O)(CC(=O)C(=O)[O-])C(=O)[O-].[Zn+2] (centres unmarked) [zinc parapyruvate] |  |  |  |  | solubility [3]: sparingly soluble |
| [Zn] [zinc] |  |  |  |  | average fasting blood sugar ([4]; after administration of zinc for 6 weeks, decrease from 250, Perger and coworkers): 142 mg %; fasting and postprandial blood sugar level ([4]; other studies, zinc administration): decreases markedly |
| zinc pyruvate | 90.5 | 67 | 19.9 | 4.60 | lysis of RBC cells begins at [5]: 1000 µg/mL; inhibitory effect on the release of HO2 (respiratory burst activity) [6]: regulatory and in part inhibitory effect; binding constant ([7]; macrophages, cell count of 10^5, read-out: binding constant determined by equilibrium dialysis): 150 nM; association constant of zinc pyruvate to the macrophages ([7]; under these in-vitro conditions): 150 nM |
